Measurements as given in the NIST ThermoML archive (doi:10.1021/je0342421).

Settings: Liquid

CCOC(C)(C)C [2-ethoxy-2-methylpropane]
Settings	vapor or sublimation pressure [kPa]
312.49 K	31.7
318.55 K	40.2
323.25 K	47.2
325.18 K	51.4
326.6 K	54.1
329.02 K	59
331.96 K	65.3
333.28 K	67.4
335.92 K	74.8
338.08 K	80.5
340.01 K	85.8
341.49 K	90.1
342.88 K	94.3
343.86 K	97
345.77 K	102.8
